Laboratory results published in PMC11655744, “Antioxidant, anti-acetylcholinesterase, and anti-amyloid-β peptide aggregations of hispolon and its analogs in vitro and improved learning and memory functions in scopolamine-induced ICR mice” (Botanical Studies, 2024).
Several values for one entry are separate records, joined by “and”; a condition that tells them apart may be missing. Identical values can stand only once. Counter-ions that a name gives are not always drawn.

Tests used:
[1] = DPPH radical scavenging activity; type: biochemical; conditions: 100 µM DPPH in methanol, 20 min, A517nm; IC50 from linear equation of 20, 50 and 100 µM; read-out: IC50 of DPPH radical scavenging activities
Procedure: The 60 µL of different concentrations of samples (10, 20, 50, 100, 150, and 200 µM diluted with DMSO) were added into a 96-well plate, and then 140 µl of 100 µM DPPH in methanol was added under light protection for 20 min. The changes of absorbance at A517nm were measured, and DMSO was used instead of a sample solution in the control group. The scavenging activity of the DPPH radical (%) was calculated with the following equation: (Control-sample)/control ×100%.

recombinant human AChE = target: T1, recombinant human AChE (Homo sapiens, UniProt P22303); experiment: biochemical; conditions: pH 7.5, tested at 125 to 1000 µM, read-out: AChE inhibitory activity IC50
T1 construct: purchased R&D Systems Inc. (Minneapolis, MN)
Procedure: The AChE substrates of acetylthiocholine iodide was added for another 15 min, and the DTNB coupling reagents was added and the mixture was recorded at 405 nm for 10 min. The DMSO instead of sample solution was used as the blank. AChE inhibition (%) was calculated by [(A405blank-A405sample)/(A405blank)] ×100%.

Aβ1-42 peptide = target: T2, Aβ1-42 peptide (Homo sapiens, UniProt P05067); experiment: Anti-Aβ1-42 peptide aggregation, thioflavin T binding assay; type: biochemical; conditions: 10 µM Aβ1-42, 10 µM ThT, 37 °C, 24 h; read-out: IC50 of anti-Aβ1-42 peptide aggregations
T2 construct: The preparation of Aβ1–42 peptide stock solution was following the previous report; purchased Sigma Chemical Co. (St. Louis, MO)
Procedure: The DMSO was used instead of the sample solution as the control. […] The inhibition against Aβ aggregation (%) was calculated as [(Econtrol,24−h-Econtrol,0−h)- (Esample,24−h-Esample,0−h)/(Econtrol,24 h-Econtrol,0−h)] ×100%.

PC12 cells = experiment: Neurite outgrowths in PC12 pheochromocytoma cells; type: cell-based, rat; conditions: 3-day treatment, blank 3.62 ± 1.62 μm
Procedure: The PC12 cells (5 × 10^3/well) were seeded in poly-L-lysine coated 96-well plate and cultured in RPMI-640 medium supplemented with 10% horse serum, 5% FBS, 100 U/ml penicillin and 100 mg/l streptomycin for 24 h at 37 °C under the humidified atmosphere and 5% CO2. […] The DMSO was used instead of the sample solution as the blank. After an interval of 3 days, the cell morphologies were photographed using an inverted microscope (200-fold magnifications, ECLIPSE TS100, Nikon Instruments Inc., Tokyo, Japan).

[2] = test system: scopolamine-induced ICR mice; experiment: Passive avoidance test in scopolamine-induced cognitive dysfunction ICR mice; type: in vivo; conditions: scopolamine 1 mg/kg i.p., P < 0.05
Source text: The 5-week-old (N = 30) male ICR mice were purchased from the Laboratory Animal Center in College of Medicine, National Taiwan University, and were housed in wire-bottomed stainless-steel cages and had free access to normal feeds (Prolab^Ⓡ RMH2500, MO) and water, which these cages were placed in an environmental controlled space under a 12-h light/dark cycle. After at least one-week acclimation, the mice were randomly divided into six groups, including the blank, the control, the positive control (donepezil-intervened), and the sample pre-treated groups (No.1, No.6, and No.7 groups). […] For mice in the blank, the control, and the positive control, mice were orally received the same volume of distilled water once daily for 10 days in the parallel experiments. In the second stage of animal experiments during day 11 to day 15, mice in the blank, the control, and the sample groups were treated as reported in the first stage, and mice in the positive control group were treated with donepezil (5 mg/kg) orally once a day by gavage feeding, and 30 min later, mice in the control, sample groups, and positive control were injected intraperitoneally with scopolamine (1 mg/kg, dissolved in PBS), and mice in the blank were injected with the same volume of PBS. At day 13 to day 15, after being injected with scopolamine or the same volume of PBS for 30 min, mice in each group were evaluated learning behaviours by the passive avoidance test. The passive avoidance apparatus, a computerized chamber (PACS-30, Columbus Instruments Inc., Columbus, OH) separated by a sliding guillotine door, is composed of a LED light box and a dark box. At the first day of the acquisition trial (day 13), the guillotine door was opened and each mouse was placed in the LED light box. In case the mouse entered the dark box, the automatic and computerized sliding guillotine door was closed, the entered mouse in the dark box received an electric foot shock (0.3 mA for 3 s) delivered via the wired metal floor and then sent back to the cage. The staying time in the light box (the step-through latency, sec) was recorded. The protocol in the second day (day 14) was the same as the first day. If the mouse stayed in the light box longer than 300 s, and the mouse was expelled into light box and received the same electric foot shocks. At the third day (day 15) of the retention trial, each mouse was placed again in the light box, and the staying time in the light box was recorded. The maximum time was 300 s.

RAW264.7 macrophages [3] = experiment: Anti-nitric oxide productions in lipopolysaccharide-treated RAW264.7 macrophages (Griess); type: cell-based; conditions: 2.5 µM, 24 h pre-treatment, then LPS 500 ng/ml 24 h
Procedure: (§1) The 5 × 10^4 macrophages/well were seeded in the 96-well plate and cultured for 24 h at 37 °C under the humidified atmosphere and 5% CO2. The cells were pre-treated with hispolon (No.1, 2.5, 5, 10, and 20 µM), No.2, No.3, No.4, and No.5 (5, 10, and 20 µM), and No.6 and No.7 (5, 10, 20, and 40 µM) for 24 h. The LPS (500 ng/ml) was then added to the pre-treated RAW264.7 macrophages for another 24 h for nitric oxide productions. For nitric oxide productions in LPS-treated RAW264.7 macrophages, the culture supernatant (100 µl) was mixed with 100 µl of Griess reagent at room temperature for 30 min. The absorbance at 550 nm was measured and expressed as relative nitric oxide productions (the control was recognized as 100%). […] The sample pretreated-RAW264.7 cells were stained with MTT solution (500 µg/mL), which the formazan was dissolved by 200 µL DMSO, and the absorbance at 570 nm was measured, and was expressed relative to the blank (%).

RAW264.7 macrophages [4] = experiment: Cell viability of RAW264.7 macrophages (MTT)
Procedure: as §1

[5] = test system: SH-SY5Y neuroblastoma cells; experiment: Neuroprotective activity in methylglyoxal-treated SH-SY5Y neuronal cells (MTT, morphology); type: cell-based; conditions: for cell viabilities of methylglyoxal-treated SH-SY5Y cells compared to the control: 24 h pre-treatment, then 500 µM methylglyoxal 24 h, MTT; for morphologies of methylglyoxal-treated SH-SY5Y cells: 10 µM, 500 µM methylglyoxal, photographs, 200-fold
Procedure: The SH-SY5Y cells (1 × 10^4 cells/well) were seeded onto a 96-well microplate and cultured in a DMEM/F-12 medium containing 10% FBS for 24 h at 37 °C under a humidified atmosphere and 5% CO2. The cultural medium was removed, and the different concentrations of hispolon (No.1), No.6, and No.7 or 0.1% DMSO (the control and the blank) were added and incubated at 37 °C in a humidified atmosphere with 5% CO2 for 24 h. The treated medium was removed, washed with PBS, and 500 µM MGO in PBS were added to the medium for another 24 h culture. The equal aliquot of PBS was added in the blank.

soluble Aβ protofibrils = conditions: intravenously every 2 weeks, 10 mg/kg of body weight, 18 months; ref van Dyck et al. [2023]; cited from earlier work
[6] = 40 mg/kg orally once daily, 10-day pre-treatment and days 11-15

T2 sequence (P05067 672-713): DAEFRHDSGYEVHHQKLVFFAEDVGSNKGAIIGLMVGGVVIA
T1 sequence (P22303 32-614): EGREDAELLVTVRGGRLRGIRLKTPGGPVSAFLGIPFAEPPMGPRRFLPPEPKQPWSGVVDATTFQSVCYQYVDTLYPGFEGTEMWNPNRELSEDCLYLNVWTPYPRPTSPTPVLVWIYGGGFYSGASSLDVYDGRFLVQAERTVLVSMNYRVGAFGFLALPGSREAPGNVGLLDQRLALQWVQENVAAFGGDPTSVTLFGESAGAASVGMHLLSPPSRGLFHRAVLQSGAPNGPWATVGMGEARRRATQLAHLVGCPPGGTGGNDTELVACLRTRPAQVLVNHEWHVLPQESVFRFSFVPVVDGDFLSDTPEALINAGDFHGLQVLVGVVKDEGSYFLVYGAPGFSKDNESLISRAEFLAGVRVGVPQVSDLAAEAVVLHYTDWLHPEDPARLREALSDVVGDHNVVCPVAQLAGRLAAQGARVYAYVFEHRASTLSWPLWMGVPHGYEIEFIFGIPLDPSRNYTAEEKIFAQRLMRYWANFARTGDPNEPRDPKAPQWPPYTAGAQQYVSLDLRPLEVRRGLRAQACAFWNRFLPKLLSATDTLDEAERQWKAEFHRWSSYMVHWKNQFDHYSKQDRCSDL

## COc1cc(/C=C/C(=O)CC(C)=O)cc(OC)c1OC [No.5, 5-methoxyhispolon dimethyl ether]
[1]
  IC50: > 100 µM
Recombinant human AChE
  IC50: > 1000 µM
Aβ1-42 peptide
  IC50: > 20 µM

## NGF
PC12 cells; 100 ng/ml, positive control
  average neurite lengths of PC12 cells: 9.18 ± 4.87 μm

## COc1cc(/C=C/C(=O)CC(C)=O)cc(O)c1O [No.3, 5-methoxyhispolon]
[1]
  IC50: 21 µM
Recombinant human AChE
  IC50: > 1000 µM
Aβ1-42 peptide
  IC50: 0.35 µM and 0.354 µM

## COc1cc2c(cc1OC)C(=O)C(CC1CCN(Cc3ccccc3)CC1)C2 (centres unmarked) [donepezil, donepezil hydrochloride, reference compound]
[2]; 5 mg/kg orally once a day, days 11-15, positive control
  step-through latency in the retention trial (day 15) compared to the control: prolong the staying time in the light box

## CC(=O)CC(=O)/C=C/c1ccc(O)c(O)c1 [No.1, Hispolon]
[1]
  IC50: 32.3 µM
Recombinant human AChE
  IC50: 828 µM
Aβ1-42 peptide
  IC50: 1.41 µM
RAW264.7 macrophages [3]
  relative nitric oxide productions (control = 100%): 70%
RAW264.7 macrophages [4]; 2.5 µM
  cytotoxicity toward RAW264.7 macrophages: no apparent toxicities
RAW264.7 macrophages [4]; 5, 10 and 20 µM
  cytotoxicity toward RAW264.7 macrophages: showed cytotoxicities toward RAW264.7 macrophages
[5]; 5 and 10 µM
  cell viabilities of methylglyoxal-treated SH-SY5Y cells compared to the control: no significant difference was found compared to those in the control
PC12 cells; 1 µM
  average neurite lengths of PC12 cells: 8.02 ± 3.14 μm
PC12 cells; 2 µM
  average neurite lengths of PC12 cells: 8.49 ± 3.61 μm
[2]; [6]
  step-through latency in the retention trial (day 15) compared to the control: prolong the staying time in the light box

## COc1cc(/C=C/C(=O)CC(C)=O)cc(OC)c1O [No.4, 5-methoxyhispolon monomethyl ether]
[1]
  IC50: 79.4 µM
Recombinant human AChE
  IC50: > 1000 µM
Aβ1-42 peptide
  IC50: 12.4 µM

## CC(=O)CC(=O)/C=C/c1ccc(O)c(O)c1O [No.6, 2-hydroxy hispolon]
[1]
  IC50: 38.2 µM
Recombinant human AChE
  IC50: 286 µM
Aβ1-42 peptide
  IC50: 1.03 µM
[5]
  morphologies of methylglyoxal-treated SH-SY5Y cells: recover parts of methylglyoxal-damaged neuritic lengths and restore pyramidal shapes
[5]; 1, 2, 5 and 10 µM
  cell viabilities of methylglyoxal-treated SH-SY5Y cells compared to the control: had significant differences compared to those in the control
PC12 cells; 1 µM
  average neurite lengths of PC12 cells: 8.50 ± 3.48 μm
PC12 cells; 2 µM
  average neurite lengths of PC12 cells: 7.01 ± 3.11 μm
[2]; [6]
  step-through latency in the retention trial (day 15) compared to the control: prolong the staying time in the light box

## CC(=O)CC(=O)/C=C/c1cc(O)c(O)c(O)c1 [No.2, 5-hydroxy hispolon]
[1]
  IC50: 28.3 µM
Recombinant human AChE
  IC50: > 1000 µM
Aβ1-42 peptide
  IC50: 0.34 µM and 0.335 µM

## COc1c(O)ccc(/C=C/C(=O)CC(C)=O)c1O [No.7, 2-hydroxy hispolon monomethyl ether]
[1]
  IC50: 37.3 µM
Recombinant human AChE
  IC50: > 1000 µM
Aβ1-42 peptide
  IC50: 0.95 µM and 0.953 µM
[5]
  morphologies of methylglyoxal-treated SH-SY5Y cells: recover parts of methylglyoxal-damaged neuritic lengths and restore pyramidal shapes
[5]; 1, 2, 5 and 10 µM
  cell viabilities of methylglyoxal-treated SH-SY5Y cells compared to the control: had significant differences compared to those in the control
PC12 cells; 1 µM
  average neurite lengths of PC12 cells: 5.40 ± 1.96 μm
PC12 cells; 2 µM
  average neurite lengths of PC12 cells: 8.05 ± 4.69 μm
[2]; [6]
  step-through latency in the retention trial (day 15) compared to the control: prolong the staying time in the light box

B1: lecanemab (antibody, chains of the INN, looked up, V domains shown)
VH: EVQLVESGGGLVQPGGSLRLSCSASGFTFSSFGMHWVRQAPGKGLEWVAYISSGSSTIYYGDTVKGRFTISRDNAKNSLFLQMSSLRAEDTAVYYCAREGGYYYGRSYYTMDYWGQGTTVTVSS
VL: DVVMTQSPLSLPVTPGAPASISCRSSQSIVHSNGNTYLEWYLQKPGQSPKLLIYKVSNRFSGVPDRFSGSGSGTDFTLRISRVEAEDVGIYYCFQGSHVPPTFGPGTKLEIK
Soluble Aβ protofibrils
  less cognitive decline in CDR-SB change between baseline and last visit compared to placebo: 27%
